Data reported in publication PMC9837035 (Nature Communications, 2023).
Where “and” joins values, the source holds several entries; their conditions need not be identical. Equal entries are not always repeated.

Assays:
[1] = test system: BGLT3-knockdown HUDEP-2 cells; test: RT-qPCR of BGLT3, β- and γ-globin in BGLT3-knockdown HUDEP-2 cells; type: cell-based, human; conditions: 1 μM, relative to shctrl DMSO = 1, replicate values
Protocol: (§1) Total cellular RNA was prepared using the Tissue Total RNA Mini Kit (FAVORGEN), and cDNA was synthesized using ReverTra Ace Master Mix (TOYOBO). Expression of target genes was analyzed using THUNDERBIRD SYBR qPCR Mix (TOYOBO) on a CFX Connect Real Time System (Bio-Rad). The qPCR data were acquired on CFX Maestro (Bio-Rad). Primers are listed in Supplementary Table 10. GAPDH was used as a reference. Primers were purchased from INTEGRATED DNA TECHNOLOGIES or FASMAC.
Retroviral infection was used as previously described to establish cell lines stably expressing BGLT3 and transfected with the pCX4-pur vector, as well as knockdown cell lines transfected with the pSUPER vector[58]. Briefly, retroviruses were produced by transfecting PLAT-E cells with pCX4-pur-BGLT3 or pSUPER-ctrl, pSUPER-BGLT3, or pSUPER-G9a using 5 μg/mL polyethylenimine MAX (PEI MAX, Polysciences). Two days after transfection, the culture supernatant was collected and filtered through a 0.45-μm filter (Millipore) and used for infection with 8 μg/mL polybrene (Sigma). Forty-eight hours after infection, the infected cells were selected with 0.2 μg/mL puromycin (InvivoGen). The clonal puromycin-resistant cells were established via limiting dilution. The desired clones were confirmed by western blotting or qPCR.

[2] = test system: BGLT3 RNA in HUDEP-2 cells; test: RT-qPCR of BGLT3 in HUDEP-2 cells; type: cell-based, human; conditions: Sup.Fig.11a; relative to DMSO = 1; replicate values
Protocol: as §1

[3] = test system: H3K9ac at the β-globin locus; test: ChIP-qPCR with antibody against H3K9ac in HUDEP-2 cells; type: cell-based, human; set-up: ChIP-qPCR using antibodies against H3K9ac in HUDEP-2 cells treated with SAHA: unit not given here; conditions: for ChIP-qPCR using antibodies against H3K9ac in HUDEP-2 cells treated with SAHA: experiments 1-3, a/b replicates
Protocol: A total of 0.5–1 × 10^6 cells were cross-linked with 1% formaldehyde for 10 min at room temperature and the reaction was quenched with 250 mM glycine. Cross-linked cells were then lysed with buffer 1 (15 mM Tris-HCl (pH 7.5), 60 mM KCl, 15 mM NaCl, 5 mM MgCl2, 0.1 mM EGTA, 300 mM sucrose, […], 1 mM phenylmethanesulfonyl fluoride (PMSF), 0.5% NP40) and incubated on ice for 10 min. […] After centrifugation, the pellet was then re-suspended in MNase buffer (50 mM Tris-HCl (pH 7.5), 1 mM CaCl2, 4 mM MgCl2, 320 mM sucrose, 1 mM PMSF) and digested with 100 U of micrococcal nuclease (Takara) at 37 °C for 15 min. […] Beads were washed sequentially once with the following buffers: wash buffer A (50 mM Tris-HCl (pH 7.5), 75 mM NaCl, 10 mM EDTA, 0.01% NP40), wash buffer B (50 mM Tris-HCl (pH 7.5), 100 mM NaCl, 10 mM EDTA, 0.01% NP40), wash buffer C (50 mM Tris-HCl (pH 7.5), 175 mM NaCl, 10 mM EDTA, 0.01% NP40). After treatment with proteinase K in buffer 4 (20 mM Tris-HCl (pH 8.0), 10 mM EDTA, 400 mM NaCl, 0.5% SDS) at 56 °C overnight, DNA was purified using the FastGene Gel/PCR Extraction Kit (Nippon Genetics). The samples were analyzed by qPCR. Primers are listed in Supplementary Table 10. ChIP-seq experiments were performed by GENEWIZ. Tracks were visualized using the integrative genome viewer. ChIP-seq analysis were analyzed Cutadapt (V1.9.1) for QC, FastQC (V0.10.1) for QC assessment, Bowtie (V2.1.0) for mapping, strand cross-correlation (SCC) for ChIP quality assessment, MACS2 for peak calling, and R package ChIPpeakAnno for Peak annotated.

[4] = test system: mice; test: Mouse acute toxicity assay, survival; type: in vivo; conditions: intravenous, 2-week observation
Protocol: All animal studies were approved by the Institutional Committee for Animal Experiments of the Institute of Microbial Chemistry, and were performed in accordance with relevant guidelines and regulations to minimize animal suffering. Four-week-old female ICR mice were purchased from Charles River Breeding Laboratories (Yokohama, Japan) and maintained in a specific pathogen-free barrier facility. […] Samples were dissolved in saline containing 10% DMSO and 1% Tween 80 and injected intravenously into mice.

[5] = test system: rat myoblast cell line H9c2; test: Cell viability assay (WST-8), H9c2; type: cell-based; conditions: control (0 μM) = 100
Protocol: (§2) A WST-8 (2-(2-methoxy-4-nitrophenyl)-3-(4-nitrophenyl)-5-(2,4-disulfophenyl)-2H-tetrazolium) assay using a Cell Counting Kit-8 (DOJINDO) was performed to measure cell viability using an EnSpire microplate reader (PerkinElmer).

[6] = test system: HUDEP-2 cells; test: Cell viability assay (WST-8), HUDEP-2; type: cell-based, human; conditions: control (0 μM) = 100
Protocol: as §2

[7] = Cell viability assay (WST-8), HUDEP-2; type: cell-based, human; conditions: human, HUDEP-2 cells, control (0 μM) = 100
Protocol: as §2

Q: Which “β-globin gene in BGLT3-knockdown HUDEP-2 cells” value ([1]; shBGLT3 #1) does the source give for `O=C(CCCCCCC(=O)Nc1ccccc1)NO` [SAHA] here?
A: 2.301 and 2.189 and 2.546

Q: What about the “γ-globin gene in BGLT3-knockdown HUDEP-2 cells” value (shortened to “γ-globin gene”) ([1]; shBGLT3 #1) of the same compound?
A: 4.852 and 4.747 and 4.193

Q: What about the “β-globin gene in BGLT3-knockdown HUDEP-2 cells” value ([1]; shBGLT3 #2) of the same compound?
A: 1.2128 and 1.2413 and 1.0394

Q: What about the “γ-globin gene” value ([1]; shBGLT3 #2) of the same compound?
A: 3.094 and 3.659 and 2.955

Q: What about the “β-globin gene in BGLT3-knockdown HUDEP-2 cells” value ([1]; shBGLT3 #3) of the same compound?
A: 2.448 and 2.303 and 2.192

Q: And the “γ-globin gene” value ([1]; shBGLT3 #3)?
A: 2.0995 and 2.031 and 1.807

Q: And the “β-globin gene in BGLT3-knockdown HUDEP-2 cells” value ([1]; shctrl)?
A: 3.928 and 4.654 and 3.722

Q: What about the “γ-globin gene” value ([1]; shctrl) of the same compound?
A: 13.6262 and 15.6907 and 11.2259

Q: What about the “BGLT3 expression in HUDEP-2 cells” value [2] of the same compound?
A: 4.739 and 6.125 and 5.109

Q: And the “ChIP-qPCR using antibodies against H3K9ac in HUDEP-2 cells treated with SAHA” value (shortened to “ChIP-qPCR using antibodies”) ([3]; BGLT3 locus)?
A: 4.594 and 4.901 and 3.587 and 4.136 and 7.628 and 5.8678

Q: What about the “ChIP-qPCR using antibodies” value ([3]; HS1) of the same compound?
A: 3.554 and 4.79 and 1.956 and 6.9673 and 5.354

Q: And the “ChIP-qPCR using antibodies” value ([3]; HS2)?
A: 3.581 and 3.815 and 1.139 and 1.6187 and 3.866 and 3.138

Q: What about the “ChIP-qPCR using antibodies” value ([3]; HS3) of the same compound?
A: 2.6549 and 2.681 and 1.467 and 2.973 and 2.979

Q: And the “ChIP-qPCR using antibodies” value ([3]; HS4)?
A: 3.747 and 4.945 and 3.035 and 2.8654 and 4.964 and 4.658

Q: What about the “histone H3 acetylation at the β-globin gene locus” value ([3]; HUDEP-2, 1 μM, 1 day) of the same compound?
A: increased

Q: What about the “ChIP-qPCR using antibodies” value ([3]; β-globin promoter) of the same compound?
A: 1.524 and 1.253 and 1.188 and 2.806 and 2.767

Q: And the “ChIP-qPCR using antibodies” value ([3]; γ-globin promoter)?
A: 0.7378 and 1.324 and 1.03 and 1.066 and 1.991 and 1.048

Q: And the “ChIP-qPCR using antibodies” value ([3]; δ-globin promoter)?
A: 4.601 and 5.375 and 3.661 and 4.076 and 5.898 and 5.487

Q: Which “Number of alive mice” value ([4]; 1.5625 mg/kg) does the source give for `COc1cc2c(NC3CCN(C(C)C)CC3)nc(N3CCC(F)(F)CC3)nc2cc1OCCCN1CCCC1` [UNC0642] here?
A: 3/3

Q: What about the “Number of alive mice” value ([4]; 3.125 mg/kg) of the same compound?
A: 3/3

Q: And the “Number of alive mice” value ([4]; 6.25 mg/kg)?
A: 2/3

Q: And the “Number of alive mice” value ([4]; 12.5 mg/kg)?
A: 1/3

Q: And the “Number of alive mice” value ([4]; 25 mg/kg)?
A: 0/3

Q: What about the “cell viability in H9c2 cells” value ([5]; 0.039 μM) of the same compound?
A: 113.444 and 97.977 and 82.062

Q: What about the “cell viability in H9c2 cells” value ([5]; 0.156 μM) of the same compound?
A: 119.033 and 94.058 and 85.452

Q: And the “cell viability in H9c2 cells” value ([5]; 0.625 μM)?
A: 120.242 and 96.207 and 89.831

Q: And the “cell viability in H9c2 cells” value ([5]; 2.5 μM)?
A: 126.737 and 89.381 and 103.107

Q: What about the “cell viability in H9c2 cells” value ([5]; 10.0 μM) of the same compound?
A: 69.940 and 117.826 and 118.079

Q: And the “cell viability in HUDEP-2 cells” value ([6]; 0.00457247 μM)?
A: 98.5098 and 95.7411

Q: What about the “cell viability in HUDEP-2 cells” value ([6]; 0.0137174 μM) of the same compound?
A: 90.6667 and 93.356

Q: What about the “cell viability in HUDEP-2 cells” value ([6]; 0.0411523 μM) of the same compound?
A: 91.9216 and 91.6525

Q: And the “cell viability in HUDEP-2 cells” value ([6]; 0.123457 μM)?
A: 105.098 and 92.3339

Q: What about the “cell viability in HUDEP-2 cells” value ([6]; 0.37037 μM) of the same compound?
A: 89.4118 and 91.9932

Q: And the “cell viability in HUDEP-2 cells” value ([6]; 1.11111 μM)?
A: 93.8039 and 89.2675

Q: And the “cell viability in HUDEP-2 cells” value ([6]; 3.33333 μM)?
A: 61.4902 and 56.2181

Q: And the “cell viability in HUDEP-2 cells” value ([6]; 10 μM)?
A: 12.549 and 12.2658

Q: What about the viability at 0.00457247 μM ([7]; 0.00457247 μM) of the same compound?
A: 97.1%

Q: And the viability at 0.0137174 μM ([7]; 0.0137174 μM)?
A: 87.4%

Q: What about the viability at 0.0411523 μM ([7]; 0.0411523 μM) of the same compound?
A: 86.5%

Q: What about the viability at 0.123457 μM ([7]; 0.123457 μM) of the same compound?
A: 92.1%

Q: What about the viability at 0.37037 μM ([7]; 0.37037 μM) of the same compound?
A: 85.8%

Q: What about the viability at 1.11111 μM ([7]; 1.11111 μM) of the same compound?
A: 85.2%

Q: What about the viability at 3.33333 μM ([7]; 3.33333 μM) of the same compound?
A: 54.8%

Q: And the viability at 10 μM ([7]; 10 μM)?
A: 8.77%
